Entrance inhibition rate data for one compound are collected here from patent publication US6562359B2, “Pest repellent” (Sumitomo Chemical Company, Ltd., priority 1997, dated 2003).

The structures appear in SMILES notation.

Format in all cases: in vivo
Assay [1] concerns mosquitoes (Aedes aegypti). Kind of assay: Test Example 1: mosquito entrance inhibition in treated cup. As to conditions: Aedes aegypti females; 0.3 mg/cup on filter paper; counted 10 minutes after setting; disposal warmer lure. The method, then: A lower side part of a plastic cup (base diameter: 10 cm; top opening diameter: 12 cm; height: 7 cm; capacity: about 650 ml) was cut out to form a 2 cm square entrance of mosquitoes. At the center of said cup was placed a twofold disposal warmer (Kiribai New Hand Warmer, 24-hour type, 13.5×10 cm) as a lure for mosquitoes. A 9 cm-diameter filter paper was treated with a 1 ml solution of the test substance diluted with acetone to a predetermined concentration, and after acetone was air dried, said filter paper was attached to the inside of the cover of said cup with a double-side adhesive tape. This cover was fitted on said cup, allowing the test substance to volatilize and diffuse in the cup for one minute.
In a nylon gauze-made cage (50 cm×50 cm×50 cm) holding about 600 mosquitoes (Aedes aegypti) one to 2 weeks old after emergence (sex ratio=ca. 1:1), 2 said cups were placed cater-cornered across the cage, each of said cups being positioned about 10 cm away from the cage corner, to lure the mosquitoes. […] 10 minutes after setting the cups at said positions in the cage, each cup was taken out of the cage and the number of the female insects attracted into the cup was counted. Based on the obtained result, the insect entrance inhibition rate was calculated from the following equation: […]

Assay [2] has as its system mosquitoes (Culex pipiens pallens). Put plainly: Test Example 2: mosquito entrance inhibition in treated cup, overnight luring. As to conditions: 3.0 mg/cup, tacky trap in cup.
Assay [3] relates to houseflies (Musca domestica). Kind of assay: Test Example 3: housefly entrance inhibition in treated cup. The following applies: 100 mg/cup, powder milk and sugar lure.
Another assay has as its system Meqaselia spiracularis. Put plainly: Test Example 4: entrance inhibition in treated cup, maggot rearing medium lure. As to conditions: 100 mg/cup, 30 minutes after setting.
Another assay concerns Clogmia albipunctata. Kind of assay: Test Example 5: entrance inhibition in treated cup, in the dark. The following applies: 30 mg/cup, 2 hours after setting.
The next assay deals with Tineola bisselliella. Put plainly: Test Example 6: entrance inhibition in treated carton with wool muslin. As to conditions: Tineola bisselliella female adults; 1 mg/cup (carton with wool muslin). An excerpt: Insect entrance inhibition rate (%)={(number of insects attracted into the non-treated section−number of insects attracted into the treated section)/number of insects attracted into the non-treated section}×100 A lower end of a 4.5 cm×4.5 cm×4.5 cm carton was cut out to form a 0.5 cm×4.5 cm entrance of insects. A filter paper (2 cm×2 cm) impregnated with an acetone-diluted solution of the test substance was placed in the carton, and a 1 cm×1 cm piece of wool muslin was laid on said filter paper. This carton was set at a corner of a nylon gauze-made cage (20 cm×20 cm×30 cm), and a carton containing a filter paper not treated with hyssop oil and having wool muslin laid thereon was set at the diagonally opposite corner of the cage. About 60 female adults of Tineola bisselliella one to 2 days old after emergence were released in the cage, and the number of the insects which entered the cartons was counted. The test was conducted on a two-replication system.

Turning to `CCN(CC)C(=O)c1cccc(C)c1` [DEET, N,N-diethyl-m-toluamide], the Entrance inhibition rate in assay [1] is reported as 38%; in assay [2], −10%; in assay [3], 34%; in the assay on Meqaselia spiracularis, 34%; in the assay with Clogmia albipunctata it was 50%; with Tineola bisselliella, 9.5%.
